“And” between values parts separate entries of the source, which are not always exact repeats. Identical values can stand only once. The source made the active and inactive calls. The calls are words filed in the database; no cut-off is given here.
Experiments:
HT-1080 = assay: Cytotoxicity against human HT-1080 cells at 31.25 to 500 uM incubated for 24 hrs by CellTiter96 aqueous one solution based assay; format: functional, cell-based; details: dose 31.25-500 µM
HCT-116 = assay: Cytotoxicity against human HCT-116 cells at 31.25 to 500 uM incubated for 24 hrs by CellTiter96 aqueous one solution based assay; format: functional, cell-based; details: dose 31.25-500 µM
[1] = Cytotoxicity against human Chang liver cells at 31.25 to 500 uM incubated for 24 hrs by CellTiter96 aqueous one solution based assay; format: toxicity, cell-based; details: dose 31.25-500 µM
[2] = tested on: Lacticaseibacillus paracasei; assay: Antibacterial activity against Lacticaseibacillus paracasei subsp.paracasei ATCC25302 assessed as bacterial growth inhibition incubated for overnight by visual analysis; format: functional; details: subsp. paracasei ATCC 25302
WI-38 = assay: Cytotoxicity against human WI-38 cells at 31.25 to 500 uM incubated for 24 hrs by CellTiter96 aqueous one solution based assay; format: toxicity, cell-based; details: wi-38, 24 h, dose 31.25-500 µM
NIH3T3 = assay: Cytotoxicity against mouse NIH3T3 cells at 31.25 to 500 uM incubated for 24 hrs by CellTiter96 aqueous one solution based assay; format: toxicity, cell-based; details: nih3t3, 24 h, dose 31.25-500 µM
A549 = assay: Cytotoxicity against human A549 cells at 31.25 to 500 uM incubated for 24 hrs by CellTiter96 aqueous one solution based assay; format: functional, cell-based; details: dose 31.25-500 µM
HepG2 = assay: Cytotoxicity against human HepG2 cells at 31.25 to 500 uM incubated for 24 hrs by CellTiter96 aqueous one solution based assay; format: functional, cell-based; details: dose 31.25-500 µM
RAW264.7 = assay: Antiinflammatory activity in mouse RAW 264.7 cells assessed as inhibition of LPS-induced NO production at 10 uM pretreated for 1 hr followed by LPS stimulation and further incubated for 24 hrs by griess reagent based assay; format: functional, cell-based; details: time 25.0 hrs
[3] = tested on: Brevibacterium epidermidis; assay: Antibacterial activity against Brevibacterium epidermidis ATCC35514 assessed as bacterial growth inhibition incubated for overnight by visual analysis; format: functional
Staphylococcus aureus = assay: Antibacterial activity against methicillin-resistant Staphylococcus aureus USA300 assessed as bacterial growth inhibition incubated for overnight by visual analysis; format: functional
Escherichia coli = assay: Antibacterial activity against Escherichia coli MG1655 assessed as bacterial growth inhibition incubated for overnight by visual analysis; format: functional
Acinetobacter baumannii [4] = assay: Antibacterial activity against Acinetobacter baumannii assessed as bacterial growth inhibition incubated for overnight by visual analysis; format: functional
Acinetobacter baumannii [5] = assay: Antibacterial activity against Acinetobacter baumannii harboring LPS-deficient mutant lpxC assessed as bacterial growth inhibition incubated for overnight by visual analysis; format: functional

## Cc1c(C)[n+](CCc2c[nH]c3ccccc23)cn1CCc1ccccc1
HT-1080
  Activity: inactive
HCT-116
  Activity: inactive
[1]
  Activity: Non-Toxic
[2]
  MIC: > 34 µg/mL and > 100 µM
WI-38
  Activity: Non-Toxic
NIH3T3
  Activity: Non-Toxic
A549
  Activity: inactive
HepG2
  Activity: inactive

## O=c1[nH]cc(F)c(=O)[nH]1 [FLUOROURACIL]
[1]
  Activity: Toxic
WI-38
  Activity: Toxic
NIH3T3
  Activity: Toxic

## CC(=O)c1cc(C)c(C)n1CCc1c[nH]c2ccccc12
HT-1080
  Activity: inactive
HCT-116
  Activity: inactive
[1]
  Activity: Non-Toxic
WI-38
  Activity: Non-Toxic
NIH3T3
  Activity: Non-Toxic
A549
  Activity: inactive
HepG2
  Activity: inactive
RAW264.7
  inhibition: Active

## Cc1c(C)[n+](CCc2c[nH]c3ccccc23)c(C)n1CCc1ccccc1
HT-1080
  Activity: inactive
HCT-116
  Activity: inactive
[1]
  Activity: Non-Toxic
[2]
  MIC: > 36 µg/mL and > 100 µM
WI-38
  Activity: Non-Toxic
NIH3T3
  Activity: Non-Toxic
A549
  Activity: inactive
HepG2
  Activity: inactive
RAW264.7
  inhibition: inactive

## CC(=O)C(C)NCCc1c[nH]c2ccccc12 (centres undefined)
[3]
  MIC: 12 µg/mL and 50 µM
HT-1080
  Activity: inactive
HCT-116
  Activity: inactive
[1]
  Activity: Non-Toxic
[2]
  MIC: 6 µg/mL and 25 µM
WI-38
  Activity: Non-Toxic
NIH3T3
  Activity: Non-Toxic
Staphylococcus aureus
  MIC: 12 µg/mL and 50 µM
A549
  Activity: inactive
HepG2
  Activity: inactive
Escherichia coli
  MIC: > 100 µM

## NCCc1c[nH]c2ccccc12 [TRYPTAMINE]
HT-1080
  Activity: inactive
HCT-116
  Activity: inactive
[1]
  Activity: Non-Toxic
WI-38
  Activity: Non-Toxic
NIH3T3
  Activity: Non-Toxic
A549
  Activity: inactive
HepG2
  Activity: inactive

## Cc1c(C)[n+](CCc2c[nH]c3ccccc23)cn1CCc1c[nH]c2ccccc12
Acinetobacter baumannii [4]
  MIC: > 100 µM
[3]
  MIC: > 100 µM
HT-1080
  Activity: inactive
HCT-116
  Activity: inactive
[1]
  Activity: Non-Toxic
[2]
  MIC: 19 µg/mL and 50 µM
WI-38
  Activity: Non-Toxic
NIH3T3
  Activity: Non-Toxic
Acinetobacter baumannii [5]
  MIC: 38 µg/mL and 100 µM
Staphylococcus aureus
  MIC: > 100 µM
A549
  Activity: inactive
HepG2
  Activity: inactive
Escherichia coli
  MIC: > 100 µM
